Consider seven compounds from US20090239949A1, “Polar Hydrophilic Prodrugs of Amphetamine and Other Stimulants and Processes for Making and Using the Same” (priority 2007, published 2009).

Series [1] in a line: Average results of oral pharmacokinetic studies of hArg-Amp vs Lys-Amp (Table 3). To be noted: relative to Lys-Amp.
Series [2] can be described thus: Oral pharmacokinetic study of Cit-Amp vs Lys-Amp (Example 13). To be noted: for % Tmax: relative to Lys-Amp.
Series [3] can be described thus: Oral pharmacokinetic study of hArg-Amp vs Lys-Amp, plasma d-amphetamine by ELISA (Example 12). As to conditions: relative to Lys-Amp. (ELISA stands for enzyme-linked immunosorbent assay.)
Series [4] can be described thus: Oral pharmacokinetic study of Lys-Amp, Sar-Amp, hCit-Amp and hArg(NO2)-Amp (Example 14). As to conditions: for Cmax: plasma d-amphetamine, n=5.
The nature of series [5]: Intranasal pharmacokinetic study of d-amphetamine, hArg-Amp and Lys-Amp (Example 15). To be noted: for % Tmax: relative to d-amp.
Series [6] is described as follows: Intravenous pharmacokinetic study of d-amphetamine, hArg-Amp and Lys-Amp (Example 16). As to conditions: for % Tmax: relative to d-amp.
Series [7] can be described thus: Pharmacokinetics of d-amphetamine after parenteral (intranasal, intravenous) administration of hArg-Amp (Example 1). As to conditions: parental routes (intranasal, intravenous).

For the compound l-lysine-d-amphetamine [Lys-Amp], the “% Tmax” value amounted to 100% in series [1]; 100% in series [2]; 100% in series [3]; 100% in series [4] (relative to Lys-Amp); 3600% in series [5] (intranasal); 100% in series [6] (intravenous). Besides, the maximum concentration (Cmax) turned out to be 59 ng/mL in series [2] (plasma d-amphetamine, n=5) and 54 ng/mL in series [4].

For the compound `C[C@H](N)Cc1ccccc1` [d-amp, d-amphetamine], the “% Tmax” value in series [5] (intranasal) and in series [6] (intravenous) was 100% in each case. The Tmax in series [5] (male, Sprague-Dawley, rat, in vivo, inhaled or intranasal, […]) was 5 min; in series [6] (male, Sprague-Dawley, rat, in vivo, iv, […]) it was 5 min.

Take sarcosine-d-amphetamine [Sar-Amp]: the highest concentration (Cmax) in series [4] came to 45 ng/mL.

“l-homocitrulline-d-amphetamine hydrochloride [hCit-Amp]” yielded a Cmax in series [4] of 57 ng/mL.

`C[C@@H](Cc1ccccc1)NC(=O)[C@@H](N)CCCCN=C(N)N.Cl.Cl` [hArg-Amp, l-homoarginine-d-amphetamine dihydrochloride]: the “% Tmax” value in series [1] is 200-400%; in series [5] (intranasal), 600%; in series [6] (intravenous), 100%. For the same compound, the Tmax in series [5] (intranasal, plasma d-amphetamine) worked out at 30 min; in series [6] (intravenous, plasma d-amphetamine), 5 m. In addition, in series [7], the release of amphetamine is reported as < 25%.

On to `C[C@@H](Cc1ccccc1)NC(=O)[C@@H](N)CCCCNC(N)=N[N+](=O)[O-]` [hArg(NO2)-Amp, l-homoarginine(NO2)-d-amphetamine], for which the maximum concentration (Cmax) in series [4] was found to be 59 ng/mL.

Consider `C[C@@H](Cc1ccccc1)NC(=O)[C@@H](N)CCCNC(N)=O.Cl` [Cit-Amp, 1-citrulline-d-amphetamine hydrochloride], for which, in series [2], the “% Tmax” value is given as 25%.

What is called Cmax is the highest concentration seen after dosing.
